The test system of test [1] is leukocytes, neutrophils, and macrophages (M1/M2) at the site of inflammation. Nature of the test: Mouse zymosan model of sterile inflammation, flow cytometry of infiltrating cells. In kind it is in vivo. The note with it: for inflammatory resolution (shift from M1 to M2 macrophages): zymosan injection, FIGS. 1-9. Here is the method: (§1) Zymosan is injected into the pleural cavities of mice in order to induce sterile inflammation. Infiltration of leukocytes, neutrophils, and macrophages are monitored at days 3 and 7 following injection. Detection of various cell types are identified according to the gating strategy outlined in Table 1 below.
In this model, injection of zymosan causes the recruitment of various waves of leukocytes, which are observed and recorded. Exudate volume increases to a maximum over a period of 24 hours, and neutrophils increase within 4 hours and reach a maximum by 48 hours. Lymphocytes of the adaptive immune system enter at a later stage, after three days, which is signaled by macrophages presenting antigens. A resolution phase is well documented in this model and is accompanied by decreased total macrophage number and transition into M2 phenotype.
In the studies, Compounds 1 and 2 were administered to the test subjects, and the effect the compounds had on infiltration of leukocytes, neutrophils, and macrophages was observed.
Similar tests were conducted with Compound 2, the results of which are illustrated in FIGS. 8 and 9. […] An additional test was carried out according to the same method. Mice were injected intraperitoneally with 1 mg Zymosan followed by 10 mg/kg Compound 1. Macrophage levels were recorded at injection, then at 4, 8, 16, 24, 48 and 72 hours post-injection.
On the technique in general: In flow cytometry, cells or beads pass a laser one at a time.

Test [2] concerns MCP-1/CCL2. Put plainly: Cytokine production in plasma following zymosan sterile insult (FIG. 7). The note with it: at 3 and 7 days, in comparison with control groups. It counts as in vivo, mouse. Here is the method: FIG. 7 depicts cytokine production in plasma in test subjects following sterile insult when treated with Compound 1.
as §1

In test [3] the test system is cytokine markers (IFNγ, IL-1β, MCP1-β, TNF-α, IL10). Nature of the test: Inflammatory biomarkers in mouse zymosan pleurisy model. In kind it is in vivo. The note with it: after 4 hours. How it is done: (§2) Zymosan was injected into the pleural cavities of mice in order to induce sterile inflammation by the methods discussed in Example 1. Compound 1 was administered to test subjects to observe the effects on a variety of inflammatory biomarkers. Results were recorded after 4 hours. […] IFNγ, IL-1β, MCP1-β and TNF-α decreased following administration of Compound 1 in all serum and plasma samples.

The test system of test [4] is BV2 cells. Nature of the test: Microglia chemotaxis assay (Transwell, ADP). In kind it is cell-based. As to conditions: 100 μM ADP, 4 hours, FIG. 10. Here is the method:
BV2 cells were added to upper chamber of a 5 μm pore Transwell 96-well plate over a reservoir containing 100 μM ADP and incubated at 37° C. with 5% CO2 for 4 hours. After the incubation cells were harvested with pre-warmed cell detachment solution for 30 minutes in the same incubation conditions. 75 μl of this cell detachment solution was combined with 75 μl of culture medium in a new 96 well plate compatible with a fluorescence reader. Cell number in bottom chamber was determined by adding CyQuant® GR dye and reading in the Envision fluorescence reader at 480 nm EX/520 nm EM.

In test [5] the test system is Docosahexaenoic Acid Metabolites. Put plainly: Detection of docosahexaenoic acid metabolites, mouse zymosan pleurisy model. It counts as in vivo. The note with it: compared with controls. How it is done: as §2
(§3) Lipids are known to be involved in regulation of a multitude of cellular responses including cell growth and death, and inflammation/infection, via receptor-mediated pathways. Various lipids are involved in both the initiation and resolution of inflammation. Pro-resolving lipid mediators are produced naturally in the body from unsaturated fatty acids, such as arachidonic acid (AA) and docosahexaenoic acid (DHA). Further studies were carried out to identify metabolites of AA and DHA, which are summarized below in Tables 2 and 3.
(§4) As shown above in relation to AA metabolism, 12-HETE and 15-HETE, both intermediate mediators leading to resolution of inflammation, show increased occurrence compared with controls, while pro-inflammatory mediators TXB2, PGE2 and LTB4 all decrease. For the metabolism of DHA, each of 17-HDOHE, RVD5 and 14-HDOHE increase, all of which are related to resolution of inflammation.

Test [6] has as its system Arachidonic Acid Metabolites. Put plainly: Detection of arachidonic acid metabolites, mouse zymosan pleurisy model. As to conditions: compared with controls. In kind it is in vivo. Here is the method: as §2, §3, §4

Data on two compounds can be found in US12364695B2, “Methods of treating inflammatory disease” (INTRA-CELLULAR THERAPIES, INC., priority 2020, dated 2025).

As to `CN1C(=O)c2c(nn(Cc3ccc(-c4ccccn4)cc3)c2Nc2ccccc2)N2C1=N[C@@H]1CCC[C@@H]12` [Compound 2], the “CD38+ macrophages” value in test [1] (3 mg/kg, day 7, FIG. 8) is on record as “significant drop”. The “Erg2+ macrophages” value in test [1] (3 mg/kg, day 7, FIG. 9) was “sharp and significant increase”. Moreover, the “inflammatory resolution (shift from M1 to M2 macrophages)” value in test [1] was “enhanced inflammatory resolution”.
In the case of `CN1C(=O)c2c(nn(Cc3ccc(-c4cccc(F)n4)cc3)c2Nc2ccccc2)N2C1=N[C@@H]1CCC[C@@H]12` [Compound 1], the “inflammatory biomarkers (MCP-1/CCL2) in plasma” value in test [2] was “less inflammatory biomarkers”. Further, in test [3] (serum and plasma), the IFNγ entry is reported as “decreased”, the IL-1β result is recorded as “decreased”, the MCP1-β entry is listed as “decreased” and the TNF-α result is recorded as “decreased”. In test [3] (serum), the IL10 entry was “decrease”. Further, the “motility of BV2 cells across the membrane” value in test [4] was “marked dampening effect”. The “M1 macrophage levels (CD80+, iNOS+)” value in test [1] (1 mg Zymosan i.p. then 10 mg/kg, all observed times, FIGS. 11A and 11B) is on record as “lower”. The “Arg1+ M2 macrophages” value in test [1] (10 mg/kg, at 4 hours, FIG. 12A) was “increased”. In test [1] (10 mg/kg, relative to control at 2 and 3 days, FIG. 12B), the “CD206+ M2 macrophages” value is listed as “significantly increased”. For the same compound, the “total numbers of CD38+ macrophages” value in test [1] (day 3, FIG. 5A) was “decreased”. Moreover, the “number of Egr2+ macrophages” value in test [1] (day 3, all animal groups, FIG. 5B) is recorded as “decreased”. Moreover, the “MFI for CD38+ on macrophages” value in test [1] (day 3, increase in all groups, FIG. 6A) is listed as “lowest value”. In test [1] (day 7, all groups), the “MFI for CD38+ on macrophages” value was “decreased”. In addition, in test [1] (day 7, all subjects, FIG. 3B), the “percentage of neutrophils relative to CD45+ leukocytes” value is “dropped significantly”. In addition, the number of neutrophils entry in test [1] (day 7, compared with disease only and vehicle animals, FIG. 3A) is listed as “less dramatic decrease”. In addition, in test [1] (days 3 and 7, compared to naïve, all groups), the “MFI for Egr2+ on macrophages” value is given as “decreased”. Also, in test [1] (overall trend, day 7), the “Egr2+ cell number and percent” value is “tended to increase”; the “number of CD38+ cells” value was “tended to decrease”. The “inflammatory resolution (shift from M1 to M2 macrophages)” value in test [1] was “enhanced inflammatory resolution”. Further, in test [5], the “14-HDOHE (resolution mediator)” value was “Increase”, the “17-HDOHE (intermediate mediator linked to resolution)” value is listed as “Increase” and the “RVD5 (intermediate mediator linked to resolution)” value is given as “Increase”. In test [6], the “5-HETE (intermediate mediator linked to resolution)” value is “No change”, the “12-HETE (intermediate mediator linked to resolution)” value was “Increase”, the “15-HETE (intermediate mediator linked to resolution)” value is “Increase” and the “LTB4 (pro-inflammatory mediator)” value is on record as “No change”. Also, in test [6], the “PGE2 (pro-inflammatory mediator)” value was “Decrease” and the “TXB2 (pro-inflammatory mediator)” value is listed as “Decrease”.
